Patent publication US8859598B2, “1, 2, 4-oxadiazoles azetidine derivatives as sphingosine-1 phosphate receptors modulators” (Allergan, Inc., priority 2012, dated 2014)

Target: T1, human S1P1 receptor (Homo sapiens, UniProt P21453)
T1 construct: expressed in transfected cells; membranes used
Assay: GTP γ35S binding assay for S1P1 activity
Format: biochemical
Details: membranes of cells stably expressing the S1P1 receptor, test concentrations 0.08 to 5,000 nM
Experimental: Compounds were synthesized and tested for S1P1 activity using the GTP γ^35S binding assay. These compounds may be assessed for their ability to activate or block activation of the human S1P1 receptor in cells stably expressing the S1P1 receptor.
GTP γ^35S binding was measured in the medium containing (mM) HEPES 25, pH 7.4, MgCl2 10, NaCl 100, dithitothreitol 0.5, digitonin 0.003%, 0.2 nM GTP γ^35S, and 5 μg membrane protein in a volume of 150 μl. Test compounds were included in the concentration range from 0.08 to 5,000 nM unless indicated otherwise. Membranes were incubated with 100 μM 5′-adenylylimmidodiphosphate for 30 min, and subsequently with 10 μM GDP for 10 min on ice. Drug solutions and membrane were mixed, and then reactions were initiated by adding GTP γ^35S and continued for 30 min at 25° C. Reaction mixtures were filtered over Whatman GF/B filters under vacuum, and washed three times with 3 mL of ice-cold buffer (HEPES 25, pH7.4, MgCl2 10 and NaCl 100). Filters were dried and mixed with scintillant, and counted for ^35S activity using a β-counter. Agonist-induced GTP γ^35S binding was obtained by subtracting that in the absence of agonist. Binding data were analyzed using a non-linear regression method. In case of antagonist assay, the reaction mixture contained 10 nM […] in the presence of test antagonist at concentrations ranging from 0.08 to 5000 nM.

T1 sequence (P21453 whole entry): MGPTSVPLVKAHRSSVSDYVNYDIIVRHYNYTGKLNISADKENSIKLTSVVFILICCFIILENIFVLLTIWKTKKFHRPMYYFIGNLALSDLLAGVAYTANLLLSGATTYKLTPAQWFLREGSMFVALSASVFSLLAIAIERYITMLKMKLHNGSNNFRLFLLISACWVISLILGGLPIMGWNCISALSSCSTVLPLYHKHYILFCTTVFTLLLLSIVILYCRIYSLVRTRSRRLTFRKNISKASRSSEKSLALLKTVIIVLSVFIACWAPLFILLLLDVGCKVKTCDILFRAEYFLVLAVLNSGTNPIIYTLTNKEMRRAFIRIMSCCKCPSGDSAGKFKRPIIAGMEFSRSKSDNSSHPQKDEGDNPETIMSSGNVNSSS

EC50: 0.483 µM
SMILES: O=C(O)C1CN(Cc2ccc(-c3noc(CCCCc4ccccc4)n3)cc2)C1 [Compound 1, 1-{4-[5-(4-Phenylbutyl)-1,2,4-oxadiazol-3-yl]benzyl}azetidine-3-carboxylic acid]
